# Assay results published in PMC11995724, “Antibiotic target discovery by integrated phenotypic and activity-based profiling of electrophilic fragments” (Cell chemical biology, 2025).
# Experiment: in vitro
# Details: human, hek293t cells
# Description: Mammalian cytotoxicity measurement was performed using Cell Titer-Glo 2.0 Cell Viability Assay (Promega, G9243) according to the manufacturer protocol. In brief, mammalian cells were seeded into 384-well white plates (Greiner, 781080) and incubated at 37°C for one day. Compounds from the Cys-Library were dispensed into the assay plate using epMotion 96. The plates were then incubated at 37°C for two days. An equal volume of Cell Titer-Glo 2.0 reagent was added into each well of the assay plate using epMotion 96 and incubated at 22°C for 10 min, followed by luminescence measurement using a Cytation 5 plate reader (BioTek).
row,Structure (SMILES),"viability at 48 h, 25 µM [%]"
1,"C=CC(=O)NC(C)C(c1ccccc1Cl)n1cccn1 (stereo not drawn) [2-J05, N-[1-(2-chlorophenyl)-1-(1H-pyrazol-1-yl)propan-2-yl]prop-2-enamide]",84.5
2,"C=CC(=O)N1CCC(C(=O)N2CCC(Cc3ncon3)CC2)CC1 [2-J06, 1-(4-{4-[(1,2,4-oxadiazol-3-yl)methyl]piperidine-1-carbonyl}piperidin-1-yl)prop-2-en-1-one]",74.2
3,"C=CC(=O)NCc1c(Cl)c(C(F)(F)F)nn1C [2-J07, N-{[4-chloro-1-methyl-3-(trifluoromethyl)-1H-pyrazol-5-yl]methyl}prop-2-enamide]",72.8
4,"C=CC(=O)N1CCC(C(=O)N[C@H]2CC[C@@H](S(C)(=O)=O)CC2)CC1 [2-J08, 1-(prop-2-enoyl)-N-[(1s,4s)-4-methanesulfonylcyclohexyl]piperidine-4-carboxamide]",86.3
5,"C=CC(=O)N1CCC(C(=O)Nc2cccc(-c3n[nH]c(C)n3)c2)CC1 [2-J09, N-[3-(5-methyl-1H-1,2,4-triazol-3-yl)phenyl]-1-(prop-2-enoyl)piperidine-4-carboxamide]",58.8
6,"C=CC(=O)N1CCC(C(=O)N2CCCC(C)(CC)C2)CC1 (stereo not drawn) [2-J10, 1-[4-(3-ethyl-3-methylpiperidine-1-carbonyl)piperidin-1-yl]prop-2-en-1-one]",67.4
7,"C=CC(=O)NCC(O)c1ncccc1OC (stereo not drawn) [2-J11, N-[2-hydroxy-2-(3-methoxypyridin-2-yl)ethyl]prop-2-enamide]",80.8
8,"C=CC(=O)N1CCC(C(=O)N(C)CCn2cccn2)CC1 [2-J12, N-methyl-1-(prop-2-enoyl)-N-[2-(1H-pyrazol-1-yl)ethyl]piperidine-4-carboxamide]",74.5
9,"C=CC(=O)N(C)Cc1cn(C2CC2)cn1 [2-J13, N-[(1-cyclopropyl-1H-imidazol-4-yl)methyl]-N-methylprop-2-enamide]",76.5
10,"C=CC(=O)N1CCC(C(=O)N2CCC(CC(N)=O)C2)CC1 (stereo not drawn) [2-J14, 2-{1-[1-(prop-2-enoyl)piperidine-4-carbonyl]pyrrolidin-3-yl}acetamide]",65
11,"C=CC(=O)NCc1ccsc1S(N)(=O)=O [2-J15, N-[(2-sulfamoylthiophen-3-yl)methyl]prop-2-enamide]",53.1
12,"C=CC(=O)N(CC)CC(=O)N1CC(C)(C)C1c1nccn1C (stereo not drawn) [2-J16, N-{2-[3,3-dimethyl-2-(1-methyl-1H-imidazol-2-yl)azetidin-1-yl]-2-oxoethyl}-N-ethylprop-2-enamide]",59.5
13,"C=CC(=O)NC1(Cn2cccn2)CC(F)(F)C1 [2-J17, N-{3,3-difluoro-1-[(1H-pyrazol-1-yl)methyl]cyclobutyl}prop-2-enamide]",54.5
14,"C=CC(=O)NCCNC(=O)[C@@]12CC[C@@](C)(C(=O)O1)C2(C)C [2-J18, N-(2-{[(1S,4R)-4,7,7-trimethyl-3-oxo-2-oxabicyclo[2.2.1]heptan-1-yl]formamido}ethyl)prop-2-enamide]",52.8
15,"C=CC(=O)NC1CCS(=O)(=O)c2ccc(F)cc21 (stereo not drawn) [2-J19, N-(6-fluoro-1,1-dioxo-3,4-dihydro-2H-1lambda6-benzothiopyran-4-yl)prop-2-enamide]",55.4
16,"C=CC(=O)NCc1ccc(C(=O)N2CCC(C(C)(C)O)CC2)cc1 [2-J20, N-({4-[4-(2-hydroxypropan-2-yl)piperidine-1-carbonyl]phenyl}methyl)prop-2-enamide]",74.2
17,"C=CC(=O)N1CCC(c2nnc3n2CCCC3)CC1 [2-J21, 1-(4-{5H,6H,7H,8H-[1,2,4]triazolo[4,3-a]pyridin-3-yl}piperidin-1-yl)prop-2-en-1-one]",67.6
18,"C=CC(=O)N(C)CC(=O)N1CCN(C(=O)c2cccc(O)c2)CC1 [2-J22, N-{2-[4-(3-hydroxybenzoyl)piperazin-1-yl]-2-oxoethyl}-N-methylprop-2-enamide]",97.7
